Experimental data from patent publication US20130324522A1, “INSECT ODORANT RECEPTOR ANTAGONISTS” (THE ROCKEFELLER UNIVERSITY, priority 2010, published 2013).

What was measured:
Drosophila melanogaster = test: Fly two-choice behavior assay; format: in vivo
Description: Male flies (Drosophila melanogaster) of the w^1118 genotype were “wet-starved” for 24 hours in plastic culture vials lacking food but supplemented with wet cotton plugs on the bottom. After the 24 hour fasting period before the assay, flies were placed into a two-choice behavior chamber. This two-choice chamber consists of one 15 cm Petri dish with two round holes (2.2 cm diameter) that were punched along the midline at an equal distance (2.9 cm) from the rim. Two small plastic vials were connected to the dish and plugged with rigid cotton plugs perforated with 1 mL pipette tips. The bottom of each trap vial was humidified with the same cotton plugs used to plug the vial by soaking the plug in deionized water for a few seconds until it was fully wetted. Each trap contained a small filter paper strip with 10 μL of either water or pure odor (3-methyl-thio-1-propanol). Flies could enter one of the two traps through a plastic pipette tip (1 mL) inserted into top of each vial. 10 μL of RU-14, or solvent (100% ethanol) or DEET was placed on small circular filter paper, and introduced into the pipette tips at the entrance. […] After 24 hours, flies were counted and a response was computed by calculating the percent of flies in each trap. Significance was assessed using the Mann-Whitney U-test. […]

Aedes aegypti = test: Mosquito two-port olfactometer behavioral assay; format: in vivo; details: 3.5 mg dose; female mosquitoes, human hand odor and CO2, two-port olfactometer
Description: Female Aedes aegypti Orlando mosquitoes (8-11 days old) were used in this assay. Larvae were hatched from dried egg papers and were reared in pans with deionized water supplemented with two tablets of fish food “TetraMin®” from Tetra every day. Pupae were transferred to cages and maintained before and after eclosion at 25° C. and 70-80% humidity with a 12 hr light: 12 hr dark photocycle. Adults were fed a 10% corn syrup solution and were free to mate with each other. One day prior to the assay, females were separated and placed into starvation cartridges (each containing 20 mosquitoes) without any food or water. The cartridges were placed at 25° C. and 70-80% humidity overnight (>l4hr).
A two-port olfactometer, adapted from Gouck (Gouck, H. K. Host preferences of various strains of Aedes aegypti and Aedes simpsoni as determined by an olfactometer. Bull. World Health Org. 47:680-683, 1972) was used to assess the repellent characteristic of small compounds by measuring mosquito host-seeking preference to human odor with a compound or its solvent. […] After 8 minutes, the number of mosquitoes in the trapping chambers (“attracted”) and main compartment (“not-attracted”) was counted. Data were expressed as % attracted/% activated. Significance was assessed using the analysis of variance, ANOVA. […] Significance was assessed using the Mann-Whitney U-test. […]

Structure (SMILES): CCN(CC)C(=O)c1cccc(C)c1 [DEET, N,N-diethyl-m-toluamide, reference compound]
- suppression of 3MTP attraction (Drosophila melanogaster; range of 1 mg to 10 mg): significant suppression

Structure (SMILES): CN(Cc1nccn1Cc1c(F)cccc1Cl)C(=O)C1CCCC1 [RU-I5]
- inhibition of host-seeking behavior (Aedes aegypti): significant inhibition

Structure (SMILES): Fc1cccc(Cl)c1Cn1ccnc1CN(CC1CCCC1)C1CC1 [RU-I4]
- suppression of 3MTP attraction (Drosophila melanogaster; 3.5 mg dose): significant suppression

Structure (SMILES): O=C(C1CCCC1)N(Cc1nccn1CCc1c(F)cccc1Cl)C1CC1 [RU-I2]
- inhibition of host-seeking behavior (Aedes aegypti): significant inhibition
